Laboratory results: EP4389751A1, “HETEROCYCLIC COMPOUNDS AND USES THEREOF” (Kumquat Biosciences Inc., priority 2021, dated 2024)

What was measured:
K-Ras G12S = molecular target: T1, K-Ras G12S (Homo sapiens, UniProt P01116, G12S); assay: HTRF assay of the K-Ras / SOS1 interaction; type: biochemical; details: IC50 (against K-Ras G12D) to IC50 (against K-Ras G12S)
T1 construct: made in house; host or cells: E. coli (e.g., BL21 (DE3))
Method in brief: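 Compounds (duplicates, 10 µM to 0.01 µM) were incubated ≥~10 min with Eu-labelled GST-K-Ras G12S and XL665-labelled His-hSOS1 in HEPES pH 7.4 buffer containing NaCl, DTT, BSA and Igepal. Disruption measured as HTRF emission ratio 665/620 nm, fitted to IC50.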

[1] = molecular target: T2, KRAS protein (His-tagged GDP-loaded G12S 1-169) (Homo sapiens, UniProt P01116, G12S); assay: Covalent modification of KRAS protein, intact-protein LC-MS; type: binding; details: 24hrs at room temperature, KRAS protein ~2 µM
T2 construct: His-tagged GDP-loaded G12S 1-169
Procedure: Test compounds are prepared as 10 mM stock solutions in DMSO (Fisher cat#BP231-100). KRAS protein (His-tagged GDP-loaded wildtype 1-169, His-tagged GDP-loaded G12S 1-169 or His-tagged GDP-loaded G12D 1-169) is diluted to ~2 µM in appropriate buffer (e.g., a Hepes buffer at physiological conditions). For testing KRAS modification, compounds are diluted to 50X final test concentration in DMSO in 96-well storage plates. 2 µl of the diluted 50X compounds are added to appropriate wells in the PCR plate (Fisher cat#AB-0800). […] of the stock protein solution is added to each well of the 96-well PCR plate. Reactions are mixed carefully. The plate is sealed well with aluminum plate seal, and stored in drawer at room temperature for 24hrs. 5 µl of 2% formic acid (Fisher cat#A1 17-50) in MilliQ H2O is then added to each well followed by mixing with a pipette. The plate is then resealed with aluminum seal and stored until mass spectrometry analysis.
The extent of covalent modification of KRAS proteins was determined by liquid chromatography electrospray mass spectrometry analysis of the intact proteins on a Thermo Q-Exactive Plus mass spectrometer. 20 µl of sample was injected onto a bioZen 3.6 µm Intact C4 column (Phenomenex cat#00B-4767-AN) placed in a column oven set to 40°C and separated using a suitable LC gradient from -20% to ~60% solvent B. Solvent A was 0.1% formic acid and solvent B was 0.1% formic acid in acetonitrile. HESI source settings were set to 40, 5 and 1 for the sheath, auxiliary and sweep gas flow, respectively. The spray voltage was 4 kV, and the capillary temperature was 320°C. S-lens RF level was 50 and auxiliary gas heater temperature was set to 200°C. The mass spectrometry was acquired using a scan range from 650 to 1750 m/z using positive polarity at a mass resolution of 70,000, AGC target of 1e6 ions and maximum injection time of 250ms. The recorded protein mass spectrum was deconvoluted from the raw data file using Protein Deconvolution v4.0 (Thermo). The protein mass and adduct masses were exported with their peak intensities. The peak intensities for the unmodified and modified protein were used to calculate the percent covalent modification of the KRAS protein based on the following equation: %KRAS protein modification = ((KRAS-compound) / (KRAS) + (KRAS-Compound)) *100.

In the case of `N#Cc1cccn1C(=O)N1CCN(c2nc(OC[C@@]34CCCN3C[C@H](F)C4)nc3c(F)c(-c4ccc(F)c5sc(N)nc45)c(Cl)cc23)CC(F)(F)C1` [Compound A114, 1-(4-(7-(2-amino-7-fluorobenzo[d]thiazol-4-yl)-6-chloro-8-fluoro-2-(((2R,7aS)-2-fluorotetrahydro-1H-pyrrolizin-7a(5H)-yl)methoxy)quinazolin-4-yl)-6,6-difluoro-1,4-diazepane-1-carbonyl)-1H-pyrrole-2-carbonitrile], the “Ratio of IC50 KRAS G12D vs. IC50 KRAS G12S” value (shortened to “Ratio”) (K-Ras G12S) is reported as “A (A: indicates that the ratio of IC50 against KrasG12D vs. IC50 against KrasG12S is 1-fold or greater)” and the “% G12S Modification at 24 hr.” value [1] is reported as “+++ (+++ indicates greater than 20% labelling)”.
`Nc1nc2c(-c3c(Cl)cc4c(N5CCCC6(CN(C(=O)n7cncn7)CCO6)C5)nc(OC[C@@]56CCCN5C[C@H](F)C6)nc4c3F)ccc(F)c2s1` (stereo partly drawn) [Compound A125, (8-(7-(2-amino-7-fluorobenzo[d]thiazol-4-yl)-6-chloro-8-fluoro-2-(((2R,7aS)-2-fluorotetrahydro-1H-pyrrolizin-7a(5H)-yl)methoxy)quinazolin-4-yl)-1-oxa-4,8-diazaspiro [5.5]undecan-4-yl)(1H-1,2,4-triazol-1-yl)methanone] was tested, and the “Ratio” value (K-Ras G12S) was “A (A: indicates that the ratio of IC50 against KrasG12D vs. IC50 against KrasG12S is 1-fold or greater)” and the “% G12S Modification at 24 hr.” value [1] was “++ (++ indicates between about 1%- 20% labelling)”.
With `N#Cc1c(N)sc2c(F)ccc(-c3ncc4c(N5CCOC6(CN(C(=O)n7cncn7)C6)C5)nc(OC[C@@]56CCCN5C[C@H](F)C6)nc4c3F)c12` [Compound A161, 4-(4-(2-(1H-1,2,4-triazole-1-carbonyl)-5-oxa-2,8-diazaspiro[3.5]nonan-8-yl)-8-fluoro-2-(((2R,7aS)-2-fluorotetrahydro-1H-pyrrolizin-7a(5H)-yl)methoxy)pyrido[4,3-d]pyrimidin-7-yl)-2-amino-7-fluorobenzo[b]thiophene-3-carbonitrile] the “Ratio” value (K-Ras G12S) was “A (A: indicates that the ratio of IC50 against KrasG12D vs. IC50 against KrasG12S is 1-fold or greater)” and the “% G12S Modification at 24 hr.” value [1] was “+++ (+++ indicates greater than 20% labelling)”.
`N#Cc1c(N)sc2c(F)ccc(-c3c(Cl)cc4c(OC5CCCCN(C(=O)n6cncn6)C5)nc(OC[C@@]56CCCN5C[C@H](F)C6)nc4c3F)c12` (stereo partly drawn) [Compound A169, 4-(4-((1-(1H-1,2,4-triazole-1-carbonyl)azepan-3-yl)oxy)-6-chloro-8-fluoro-2-(((2R,7aS)-2-fluorotetrahydro-1H-pyrrolizin-7a(5H)-yl)methoxy)quinazolin-7-yl)-2-amino-7-fluorobenzo[b]thiophene-3-carbonitrile] was tested, and the “Ratio” value (K-Ras G12S) was “A (A: indicates that the ratio of IC50 against KrasG12D vs. IC50 against KrasG12S is 1-fold or greater)” and the “% G12S Modification at 24 hr.” value [1] was “+++ (+++ indicates greater than 20% labelling)”.
In the case of `CN1CCC[C@H]1COc1nc(N2CCOC3(CN(C(=O)n4cncn4)C3)C2)c2cc(Cl)c(-c3ccc(F)c4sc(N)c(C#N)c34)c(F)c2n1` [Compound A182, 4-(4-(2-(1H-1,2,4-triazole-1-carbonyl)-5-oxa-2,8-diazaspiro[3.5]nonan-8-yl)-6-chloro-8-fluoro-2-(((S)-1-methylpyrrolidin-2-yl)methoxy)quinazolin-7-yl)-2-amino-7-fluorobenzo[b]thiophene-3-carbonitrile], the “Ratio” value (K-Ras G12S) is reported as “A (A: indicates that the ratio of IC50 against KrasG12D vs. IC50 against KrasG12S is 1-fold or greater)” and the “% G12S Modification at 24 hr.” value [1] is reported as “++ (++ indicates between about 1%- 20% labelling)”.
With `Nc1nc2c(-c3c(Cl)cc4c(N5CCC6(CCN(C(=O)n7cncn7)CC6)C5)nc(OC[C@@]56CCCN5C[C@H](F)C6)nc4c3F)ccc(F)c2s1` [Compound A198, (2-(7-(2-amino-7-fluorobenzo[d]thiazol-4-yl)-6-chloro-8-fluoro-2-(((2R,7aS)-2-fluorotetrahydro-1H-pyrrolizin-7a(5H)-yl)methoxy)quinazolin-4-yl)-2,8-diazaspiro[4.5]decan-8-yl)(1H-1,2,4-triazol-1-yl)methanone] the “Ratio” value (K-Ras G12S) was “A (A: indicates that the ratio of IC50 against KrasG12D vs. IC50 against KrasG12S is 1-fold or greater)” and the “% G12S Modification at 24 hr.” value [1] was “+++ (+++ indicates greater than 20% labelling)”.
In the case of `N#Cc1c(N)sc2c(F)ccc(-c3c(Cl)cc4c(O[C@@H]5CCN(C(=O)n6cncn6)C5)nc(OCC56CCCN5C[C@H](F)C6)nc4c3F)c12` (stereo partly drawn) [Compound A213, 4-(4-(((R)-1-(1H-1,2,4-triazole-1-carbonyl)pyrrolidin-3-yl)oxy)-6-chloro-8-fluoro-2-(((2R)-2-fluorotetrahydro-1H-pyrrolizin-7a(5H)-yl)methoxy)quinazolin-7-yl)-2-amino-7-fluorobenzo[b]thiophene-3-carbonitrile], the “Ratio” value (K-Ras G12S) is reported as “A (A: indicates that the ratio of IC50 against KrasG12D vs. IC50 against KrasG12S is 1-fold or greater)” and the “% G12S Modification at 24 hr.” value [1] is reported as “++ (++ indicates between about 1%- 20% labelling)”.
`Nc1nc2c(-c3c(Cl)cc4c(N5CCC6(CC5)CN(C(=O)n5cncn5)CCO6)nc(OC[C@@]56CCCN5C[C@H](F)C6)nc4c3F)ccc(F)c2s1` [Compound A225, (9-(7-(2-amino-7-fluorobenzo[d]thiazol-4-yl)-6-chloro-8-fluoro-2-(((2R,7aS)-2-fluorotetrahydro-1H-pyrrolizin-7a(5H)-yl)methoxy)quinazolin-4-yl)-1-oxa-4,9-diazaspiro [5.5]undecan-4-yl)(1H-1,2,4-triazol-1-yl)methanone] was tested, and the “Ratio” value (K-Ras G12S) was “A (A: indicates that the ratio of IC50 against KrasG12D vs. IC50 against KrasG12S is 1-fold or greater)” and the “% G12S Modification at 24 hr.” value [1] was “++ (++ indicates between about 1%- 20% labelling)”.
`N#Cc1cnn(C(=O)N2CCCN(c3nc(OC[C@@]45CCCN4C[C@H](F)C5)nc4c(F)c(-c5ccc(F)c6sc(N)nc56)c(Cl)cc34)CC2)c1` [Compound A231, 1-(4-(7-(2-amino-7-fluorobenzo[d]thiazol-4-yl)-6-chloro-8-fluoro-2-(((2R,7aS)-2-fluorotetrahydro-1H-pyrrolizin-7a(5H)-yl)methoxy)quinazolin-4-yl)-1,4-diazepane-1-carbonyl)-1H-pyrazole-4-carbonitrile] was tested, and the “Ratio” value (K-Ras G12S) was “A (A: indicates that the ratio of IC50 against KrasG12D vs. IC50 against KrasG12S is 1-fold or greater)” and the “% G12S Modification at 24 hr.” value [1] was “++ (++ indicates between about 1%- 20% labelling)”.
`N#Cc1nccn1C(=O)N1CC2CN(c3nc(OC[C@@]45CCCN4C[C@H](F)C5)nc4c(F)c(-c5ccc(F)c6sc(N)nc56)c(Cl)cc34)CC2C1` (stereo partly drawn) [Compound A236, 1-(5-(7-(2-amino-7-fluorobenzo[d]thiazol-4-yl)-6-chloro-8-fluoro-2-(((2R,7aS)-2-fluorotetrahydro-1H-pyrrolizin-7a(5H)-yl)methoxy)quinazolin-4-yl)octahydropyrrolo[3,4-c]pyrrole-2-carbonyl)-1H-imidazole-2-carbonitrile] was tested, and the “Ratio” value (K-Ras G12S) was “A (A: indicates that the ratio of IC50 against KrasG12D vs. IC50 against KrasG12S is 1-fold or greater)” and the “% G12S Modification at 24 hr.” value [1] was “++ (++ indicates between about 1%- 20% labelling)”.
With `N#Cc1c(N)sc2c(F)ccc(-c3c(Cl)cc4c(N5CC(F)(F)C6CN(C(=O)n7cncn7)CCC65)nc(OC[C@@]56CCCN5C[C@H](F)C6)nc4c3F)c12` (stereo partly drawn) [Compound A263, 2-amino-4-(6-chloro-4-(3,3-difluoro-5-(1H-1,2,4-triazole-1-carbonyl)octahydro-1H-pyrrolo[3,2-c]pyridin-1-yl)-8-fluoro-2-(((2R,7aS)-2-fluorotetrahydro-1H-pyrrolizin-7a(5H)-yl)methoxy)quinazolm-7-yl)-7-fluorobenzo[b]thiophene-3-carbonitrile] the “Ratio” value (K-Ras G12S) was “A (A: indicates that the ratio of IC50 against KrasG12D vs. IC50 against KrasG12S is 1-fold or greater)” and the “% G12S Modification at 24 hr.” value [1] was “++ (++ indicates between about 1%- 20% labelling)”.
